Results on 18 molecules are retold here after patent US12344610B2, “APOL1 inhibitors and methods of use” (Maze Therapeutics, Inc., priority 2022, dated 2025).

Assay [1] concerns HEK293 cells overexpressing APOL1 G2. In words: APOL1 G2 HEK293 cell rescue assay (reversal of cell death caused by overexpression of APOL1). The class given is cell-based. The note with it: Homo sapiens, HEK293, HEK293 overexpressing APOL1 G2; geometric mean of at least 2 assay runs; † = single assay run. How it is done:
Unless otherwise specified, EC50 values are reported as the geometric mean of at least 2 assay runs on separate days. Each run represents the average of a technical replicate, where each compound was assayed twice in the same plate. A superscript t symbol indicates a value from the average of a technical replicate from a single assay run, where each compound was assayed twice in the same plate. Compounds in Table 40 are referred to by the corresponding Compound Number in Table 1, which is also referred to in the synthetic examples. When one or more of the numbered compounds are identified by stereochemistry (for example, (R)- or (S)-), the specific stereoisomer for which data is provided in Table 40 may be identified by the elution order of such compound as described in the synthetic examples. Absolute stereochemistry of such compounds may be identified by methods known in the art. For Table 40 below, n/a represents “not available”.
Rescue EC50 values reported in Table 40 below represent the half-maximal effective concentration for reversal of cell death caused by overexpression of APOL1.

Assay [2] has as its system HEK293 clonal cell line overexpressing APOL1 G1. In words: APOL1 G1 HEK293 cell rescue assay (Example B3). The note with it: Homo sapiens, HEK293, HEK293 clonal line overexpressing APOL1 G1; geometric mean of at least 2 runs; † = single run; ¥ = concentration at 50% rescue estimated (no sigmoidal curve). The class given is cell-based. The protocol:
Compounds were also assayed in a HEK293 clonal cell line overexpressing APOL1 G1 by a method similar to that shown in Example B2 above.
Unless otherwise specified, EC50 values are reported as the geometric mean of at least 2 assay runs on separate days. Each run represents the average of a technical replicate, where each compound was assayed twice in the same plate. A superscript † symbol indicates a value from the average of a technical replicate from a single assay run, where each compound was assayed twice in the same plate. A ¥ symbol represents compound concentration at 50% rescue estimated due to lack of sigmoidal curve preventing curve fitting. Compounds in Table 41 are referred to by the corresponding Compound Number in Table 1, which is also referred to in the synthetic examples. When one or more of the numbered compounds are identified by stereochemistry (for example, (R)- or (S)-), the specific stereoisomer for which data is provided in Table 41 may be identified by the elution order of such compound as described in the synthetic examples. Absolute stereochemistry of such compounds may be identified by methods known in the art. For Table 41 below, n/a represents “not available”.
Rescue EC50 values reported in Table 41 below represent the half-maximal effective concentration for reversal of cell death caused by overexpression of APOL1.

Each structure is given as a SMILES string. pEC50: −log10 of the molar value.

The pEC50 is −log10 of the EC50, conventionally taken in molar units. Regarding `CN1C(=O)C2(CCN(CCOc3ccc(C4(S(C)(=O)=O)CC(O)C4)cc3)CC2)c2cc(C(F)F)ccc21` (stereo not drawn) [Compound 277, 5-(difluoromethyl)-1′-{2-[4-(3-hydroxy-1-methanesulfonylcyclobutyl)phenoxy]ethyl}-1-methyl-1,2-dihydrospiro[indole-3,4′-piperidin]-2-one], the pEC50 in assay [1] was 7.47; in assay [2], 6.93.
With `CS(=O)(=O)C1(c2ccc(OCCN3CCC4(CC3)C(=O)Nc3ccc(C(F)F)cc34)cc2)CC(O)C1` (stereo not drawn) [Compound 280, 5-(difluoromethyl)-1′-{2-[4-(3-hydroxy-1-methanesulfonylcyclobutyl)phenoxy]ethyl}-1,2-dihydrospiro[indole-3,4′-piperidin]-2-one], the results for the pEC50 in assay [1] and in assay [2] were 7.10 and 6.63, respectively.
For the molecule `O=C1CCc2cc(OCCN3CCC4(CC3)C(=O)Nc3ccc(Cl)cc34)cnc2N1` [Compound 293, 5-chloro-1′-{2-[(7-oxo-5,6,7,8-tetrahydro-1,8-naphthyridin-3-yl)oxy]ethyl}-1,2-dihydrospiro[indole-3,4′-piperidin]-2-one], the pEC50 in assay [1] is 6.53; in assay [2], 6.71.
Turning to `CC(O)c1ncc(OCCN2CCC3(CC2)C(=O)Nc2ccc(C(F)F)cc23)cc1C(F)(F)F` (stereo not drawn) [Compound 296, 5-(difluoromethyl)-1′-(2-{[6-(1-hydroxyethyl)-5-(trifluoromethyl)pyridin-3-yl]oxy}ethyl)-1,2-dihydrospiro[indole-3,4′-piperidin]-2-one], the negative-log EC50 (pEC50) was 7.11 in assay [1] and 6.80 in assay [2].
In the case of `O=C1CCc2cc(OCCN3CCC4(CC3)C(=O)Nc3ccc(Cl)cc34)cnc2N1C1CC(O)(C2CC2)C1` (stereo not drawn) [Compound 299, 5-chloro-1′-(2-{[8-(3-cyclopropyl-3-hydroxycyclobutyl)-7-oxo-5,6,7,8-tetrahydro-1,8-naphthyridin-3-yl]oxy}ethyl)-1,2-dihydrospiro[indole-3,4′-piperidin]-2-one], the pEC50 in assay [1] is 7.67; in assay [2], 7.20.
In the case of `CCC1(O)CC(N2C(=O)CCc3cc(OCCN4CCC5(CC4)C(=O)Nc4ccc(Cl)cc45)cnc32)C1` (stereo not drawn) [Compound 318], the pEC50 is 7.63 in assay [1] and 7.18 in assay [2].
In the case of `O=C1Nc2ccc(Cl)cc2C12CCN(CCOc1cnc(C(O)CO)nc1)CC2` (stereo not drawn) [Compound 330, 5-chloro-1′-(2-{[2-(1,2-dihydroxyethyl)pyrimidin-5-yl]oxy}ethyl)-1,2-dihydrospiro[indole-3,4′-piperidin]-2-one], the pEC50 in assay [1] is 6.18; in assay [2] it was approximately 5.82.
Consider `CC(O)c1ncc(OCCN2CCC3(CC2)C(=O)Nc2ccc(C#N)cc23)cc1C(F)(F)F` (stereo not drawn) [Compound 338, 1′-(2-{[6-(1-hydroxyethyl)-5-(trifluoromethyl)pyridin-3-yl]oxy}ethyl)-2-oxo-1,2-dihydrospiro[indole-3,4′-piperidine]-5-carbonitrile], for which the negative logarithm of the EC50 (pEC50) in assay [1] is 7.00; in assay [2], 6.67.
`CP(C)(=O)C1(c2ncc(OCCN3CCC4(CC3)C(=O)Nc3ccc(Cl)cc34)cn2)CC1` [Compound 344, 5-chloro-1′-[2-({2-[1-(dimethylphosphoryl)cyclopropyl]pyrimidin-5-yl}oxy)ethyl]-1,2-dihydrospiro[indole-3,4′-piperidin]-2-one]: the negative-log EC50 (pEC50) in assay [1] is 6.71; in assay [2], 6.60.
For `C[C@]1(O)C[C@@H](n2cnc3cc(OCCN4CCC5(CC4)C(=O)Nc4ccc(Cl)cc45)ccc32)C1` [Compound 351, 5-chloro-1′-[2-({1-[(cis)-3-hydroxy-3-methylcyclobutyl]-1H-1,3-benzodiazol-5-yl}oxy)ethyl]-1,2-dihydrospiro[indole-3,4′-piperidin]-2-one] the same measures were 6.78 and 6.52.
As to `C[C@]1(O)C[C@@H](N2C(=O)CCc3cc(OCCN4CCC5(CC4)C(=O)Nc4ccc(Cl)cc45)cc(C(F)(F)F)c32)C1` [Compound 353, 5-chloro-1′-[2-({2-oxo-1-[(cis)-3-hydroxy-3-methylcyclobutyl]-8-(trifluoromethyl)-1,2,3,4-tetrahydroquinolin-6-yl}oxy)ethyl]-1,2-dihydrospiro[indole-3,4′-piperidin]-2-one], the results for the pEC50 in assay [1] and in assay [2] were 7.91 and 7.46, respectively.
As for `C[C@]1(O)C[C@@H](N2C(=O)CCc3cc(OCCN4CCC5(CC4)C(=O)Nc4ccc(C#N)cc45)cc(C(F)(F)F)c32)C1` [Compound 354, 2-oxo-1′-[2-({2-oxo-1-[(cis)-3-hydroxy-3-methylcyclobutyl]-8-(trifluoromethyl)-1,2,3,4-tetrahydroquinolin-6-yl}oxy)ethyl]-1,2-dihydrospiro[indole-3,4′-piperidine]-5-carbonitrile], the pEC50 in assay [1] was 7.84; in assay [2], 7.40.
For `CC1(O)CC(c2ncc(OCCN3CCC4(CC3)C(=O)Nc3ccc(Cl)cc34)cn2)C1` (stereo not drawn) [Compound 373, 5-chloro-1′-(2-{[2-(3-hydroxy-3-methylcyclobutyl)pyrimidin-5-yl]oxy}ethyl)-1,2-dihydrospiro[indole-3,4′-piperidin]-2-one], in that order: 7.27 and 6.88.
Regarding `C[C@]1(O)C[C@@H](n2c(=O)[nH]c3cc(OCCN4CCC5(CC4)C(=O)Nc4ccc(Cl)cc45)cnc32)C1` [Compound 374, 5-chloro-1′-[2-({2-oxo-3-[(cis)-3-hydroxy-3-methylcyclobutyl]-1H,2H,3H-imidazo[4,5-b]pyridin-6-yl}oxy)ethyl]-1,2-dihydrospiro[indole-3,4′-piperidin]-2-one], the values for the pEC50 in assay [1] and in assay [2] were 7.00 and 6.67, respectively.
`CC(O)c1ncc(OCCN2CCC3(CC2)C(=O)Nc2ccc(Cl)cc23)cc1C(F)(F)F` (stereo not drawn) [Compound 399, 5-chloro-1′-(2-{[6-(1-hydroxyethyl)-5-(trifluoromethyl)pyridin-3-yl]oxy}ethyl)-1,2-dihydrospiro[indole-3,4′-piperidin]-2-one]: the values for the pEC50 in assay [1] and in assay [2] were 7.30 and 6.93, respectively.
Regarding `CS(=O)(=O)C1(c2ncc(OCCN3CCC4(CC3)C(=O)Nc3c(Cl)cc(Cl)cc34)cn2)CC1` [Compound 400, 5,7-dichloro-1′-(2-{[2-(1-methanesulfonylcyclopropyl)pyrimidin-5-yl]oxy}ethyl)-1,2-dihydrospiro[indole-3,4′-piperidin]-2-one], the pEC50 is 6.65 in assay [1] and 6.17 in assay [2].
In the case of `C[C@]1(O)C[C@@H](N2C(=O)CCc3cc(OCCN4CCC5(CC4)C(=O)Nc4c(Cl)cc(Cl)cc45)cnc32)C1` [Compound 409, 5,7-dichloro-1′-[2-({7-oxo-8-[(cis)-3-hydroxy-3-methylcyclobutyl]-5,6,7,8-tetrahydro-1,8-naphthyridin-3-yl}oxy)ethyl]-1,2-dihydrospiro[indole-3,4′-piperidin]-2-one], the pEC50 in assay [1] was 7.15; in assay [2] it was 6.87.
For the molecule `[2H]C([2H])([2H])N1C(=O)C2(CCN(CCOc3cnc(C4(S(C)(=O)=O)COC4)nc3)CC2)c2cc(Cl)ccc21` [Compound 422, 5-chloro-1′-(2-{[2-(3-methanesulfonyloxetan-3-yl)pyrimidin-5-yl]oxy}ethyl)-1-(^2H3)methyl-1,2-dihydrospiro[indole-3,4′-piperidin]-2-one], the pEC50 in assay [1] was 7.20; in assay [2] it was 6.78.
